Laboratory results from patent publication US9023789B2, “Amylin analogs and pharmaceutical compositions thereof” (Novo Nordisk A/S, priority 2012, dated 2015).
Converted amounts (≈) assume the structure as drawn. Like-named read-outs stand apart in the source and are kept apart here. Numbered stars: 1 amine (or outer) side, 2 acyl side, 3 side chain; on linkers, the order of the positions; unused ones are H or OH. Bridge positions count the residues as written; N and C are the ends. Side chains are listed from the residue outwards. Peptide text beside a SMILES is read from it. * marks the point of attachment. C20 diacid = O=C(O)CCCCCCCCCCCCCCCCCCC(=O)*; γGlu = O=C(O)[C@H](CCC(=O)[*:2])N[*:1]; AEEA = NCCOCCOCC(=O)O

How the values were obtained:
[1] = biological target: T1, human amylin 3(a) receptor (human calcitonin receptor + RAMP-3) in BHK570 cells (Homo sapiens, UniProt O60896+P30988); assay: ASSAY (II)a functional assay, human amylin receptor (CRE luciferase); assay type: cell-based
T1 construct: expressed in transfected cells
Method in brief: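 Read-out: CRE-driven luciferase luminescence, single photon counting, after 30 min at room temperature with LucLite. BHK cells expressed calcitonin receptor alone or with RAMP-3 (amylin 3(a)). Cells were stimulated 3 h at 37° C in DMEM, 10% FBS, 10 mM Hepes, pH 7.4.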

[2] = ASSAY (IV) determination of solubility; assay type: physicochemical; details: for Solubility pH 6.5 Concentration: pH 6.5 (Table 9a); for Solubility pH 7.0 Concentration: pH 7.0 (Table 9a)
Method in brief: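 Solubility measured by UPLC of supernatant after centrifugation, following 18 h at room temperature. Peptide ([…] in water) was diluted 1:1 into 100 mM glycylglycine (pH 3.0, 4.0, 5.0) or bistrispropane (pH 6.0-8.0).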

[3] = biological target: T2, human amylin receptor (membranes from Amylin 3(a)/CRE-luc cells) (Homo sapiens, UniProt O60896+P30988); assay: ASSAY (V) binding to the human amylin receptor (SPA, 125I-rat amylin);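 further: competition binding of cell membranes (35 ng/µL) mixed with SPA beads in 384-well plates at 40 µL total volume, read by scintillation counting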
T2 construct: expressed in transfected cells
T2 sequence (P30988 25-474): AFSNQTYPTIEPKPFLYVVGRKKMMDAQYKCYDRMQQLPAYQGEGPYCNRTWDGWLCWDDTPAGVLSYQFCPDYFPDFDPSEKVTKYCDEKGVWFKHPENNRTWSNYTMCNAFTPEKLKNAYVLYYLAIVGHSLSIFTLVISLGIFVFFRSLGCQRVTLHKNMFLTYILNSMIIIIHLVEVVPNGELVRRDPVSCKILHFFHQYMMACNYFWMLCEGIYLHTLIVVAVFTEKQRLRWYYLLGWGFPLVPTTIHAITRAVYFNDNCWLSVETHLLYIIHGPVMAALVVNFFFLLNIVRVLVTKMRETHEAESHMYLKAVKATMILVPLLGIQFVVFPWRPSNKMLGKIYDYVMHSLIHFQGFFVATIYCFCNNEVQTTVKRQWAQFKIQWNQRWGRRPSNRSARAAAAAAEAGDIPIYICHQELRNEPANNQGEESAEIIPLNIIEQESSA
T2 sequence (O60896 24-148 partner): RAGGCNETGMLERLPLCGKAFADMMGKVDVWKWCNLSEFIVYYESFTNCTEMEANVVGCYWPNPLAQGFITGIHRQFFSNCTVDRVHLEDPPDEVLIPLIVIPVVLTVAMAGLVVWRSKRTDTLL

[4] = hCTR funct. EC50 divided by hAmylin-R funct. EC50
[5] = hCTR funct. EC50 over hAmylin-R funct. EC50
[6] = human functional selectivity: hCTR funct. EC50 / hAmylin-R funct. EC50
[7] = bistrispropane buffer, pH 6.5, read-out: Solubility pH 6.5 Concentration
[8] = bistrispropane buffer, pH 7.5, read-out: Solubility pH 7.5 Concentration
[9] = bistrispropane buffer, pH 6.0, read-out: Solubility pH 6.0 Concentration
[10] = bistrispropane buffer, pH 7.0, read-out: Solubility pH 7.0 Concentration
[11] = bistrispropane buffer, pH 8.0, read-out: Solubility pH 8.0 Concentration
[12] = glycylglycine buffer, pH 3.0, read-out: Solubility pH 3.0 Concentration
[13] = glycylglycine buffer, pH 4.0, read-out: Solubility pH 4.0 Concentration
[14] = glycylglycine buffer, pH 5.0, read-out: Solubility pH 5.0 Concentration
[15] = Table 5, selectivity, hCTR bind IC50 / hAmylin-R bind IC50
[16] = Table 5a, selectivity, hCTR bind IC50 / hAmylin-R bind IC50
[17] = Table 5b, selectivity, hCTR bind IC50 / hAmylin-R bind IC50
[18] = Table 5c, selectivity, hCTR bind IC50 / hAmylin-R bind IC50
[19] = Table 7, human binding selectivity, included for comparison
[20] = Table 7a (preferred compounds), human binding selectivity, included for comparison
[21] = ratio of human calcitonin receptor binding IC50 to human amylin receptor binding IC50

Row | Compound | Ratio hCT/hAmylin funct. [1, 4] | Ratio hCT/hAmylin funct. [1, 5] | Ratio hCT/hAmylin funct. [1, 6] | solubility at 18 h [2, 7] | solubility at 18 h [2, 8] | solubility at 18 h [2, 9] | solubility at 18 h [2, 10] | solubility at 18 h [2, 11] | solubility at 18 h [2, 12] | solubility at 18 h [2, 13] | solubility at 18 h [2, 14] | Solubility pH 6.5 Concentration [2] | Solubility pH 7.0 Concentration [2] | Ratio hCT/hAmylin binding [3, 15] | Ratio hCT/hAmylin binding [3, 16] | Ratio hCT/hAmylin binding [3, 17] | Ratio hCT/hAmylin binding [3, 18] | Ratio hCT/hAmylin binding [3, 19] | Ratio hCT/hAmylin binding [3, 20] | Ratio hCT/hAmylin binding [3, 21]
1 | CC[C@H](C)[C@H](NC(=O)[C@H](C)NC(=O)CNC(=O)[C@H](Cc1ccccc1)NC(=O)[C@H](CC(N)=O)NC(=O)[C@@H]1CCCN1C(=O)[C@H](CO)NC(=O)[C@H](CO)NC(=O)[C@H](Cc1c[nH]cn1)NC(=O)[C@H](CCCNC(=N)N)NC(=O)[C@H](CC(C)C)NC(=O)[C@H](Cc1ccccc1)NC(=O)[C@H](CC(N)=O)NC(=O)[C@H](C)NC(=O)[C@H](CC(C)C)NC(=O)[C@H](CCCNC(=N)N)NC(=O)[C@H](CCC(N)=O)NC(=O)[C@@H](NC(=O)[C@H](C)NC(=O)[C@@H]1CSSC[C@H](NC(=O)[C@@H](N)CCCCNC(=O)COCCOCCNC(=O)COCCOCCNC(=O)CC[C@H](NC(=O)CCCCCCCCCCCCCCCCCCC(=O)O)C(=O)O)C(=O)N[C@@H](CC(N)=O)C(=O)N[C@@H]([C@@H](C)O)C(=O)N[C@@H](C)C(=O)N[C@@H]([C@@H](C)O)C(=O)N1)[C@@H](C)O)C(=O)N1CCC[C@H]1C(=O)N[C@@H](CO)C(=O)N[C@@H](CO)C(=O)N[C@H](C(=O)N[C@@H](CC(N)=O)C(=O)N[C@H](C(=O)NCC(=O)N[C@@H](Cc1c[nH]cn1)C(=O)N[C@@H](CC(N)=O)C(=O)N[C@H](C(=O)N[C@@H](Cc1ccc(O)cc1)C(N)=O)[C@@H](C)O)C(C)C)[C@@H](C)O [Example 97] | 33.0 | 33.0 | 33.0 | ≥ 200 µM | 88 µM (≈ 415 µg/mL) | ≥ 200 µM | ≥ 200 µM | 43 µM (≈ 203 µg/mL) | ≥ 200 µM | ≥ 200 µM | ≥ 200 µM | ≧200 μM | ≧200 μM | 103.7 | 103.7 | 103.7 | 103.7 | 103.7 | 103.7 | 103.7
2 | CC[C@H](C)[C@H](NC(=O)[C@H](C)NC(=O)CNC(=O)[C@H](Cc1ccccc1)NC(=O)[C@H](CC(N)=O)NC(=O)[C@@H]1CCCN1C(=O)[C@H](CO)NC(=O)[C@H](CO)NC(=O)[C@H](Cc1c[nH]cn1)NC(=O)[C@H](CCCNC(=N)N)NC(=O)[C@H](CC(C)C)NC(=O)[C@H](Cc1ccccc1)NC(=O)[C@H](CC(N)=O)NC(=O)[C@H](C)NC(=O)[C@H](CC(C)C)NC(=O)[C@H](CCCNC(=N)N)NC(=O)[C@H](CCC(N)=O)NC(=O)[C@@H](NC(=O)[C@H](C)NC(=O)[C@@H]1CSSC[C@H](NC(=O)[C@@H](N)CCCCNC(=O)COCCOCCNC(=O)CC[C@H](NC(=O)CCCCCCCCCCCCCCCCCCC(=O)O)C(=O)O)C(=O)N[C@@H](CC(N)=O)C(=O)N[C@@H]([C@@H](C)O)C(=O)N[C@@H](C)C(=O)N[C@@H]([C@@H](C)O)C(=O)N1)[C@@H](C)O)C(=O)N1CCC[C@H]1C(=O)N[C@@H](CO)C(=O)N[C@@H](CO)C(=O)N[C@H](C(=O)N[C@@H](CC(N)=O)C(=O)N[C@H](C(=O)NCC(=O)N1CCC[C@H]1C(=O)N[C@@H](Cc1c[nH]cn1)C(=O)N[C@H](C(=O)N[C@@H](Cc1ccc(O)cc1)C(N)=O)[C@@H](C)O)C(C)C)[C@@H](C)O [Example 58] (H-K([AEEA-γGlu-C20 diacid])CNTATCATQRLANFLRHSSPNFGAIPSSTNVGPHTY-NH2; disulfide 2-7) | 21.9 | 21.9 | 21.9 | ≥ 200 µM | 96 µM (≈ 438 µg/mL) | ≥ 200 µM | ≥ 200 µM | 48 µM (≈ 219 µg/mL) | ≥ 200 µM | ≥ 200 µM | ≥ 200 µM | ≧200 μM | ≧200 μM | 109.4 | 109.4 | 109.4 | 109.4 | 109.4 | 109.4 | 109.4
3 | CC[C@H](C)[C@H](NC(=O)[C@H](C)NC(=O)CNC(=O)[C@H](Cc1ccccc1)NC(=O)[C@H](CC(N)=O)NC(=O)[C@@H]1CCCN1C(=O)[C@H](CO)NC(=O)[C@H](CO)NC(=O)[C@H](Cc1c[nH]cn1)NC(=O)[C@H](CCCNC(=N)N)NC(=O)[C@H](CC(C)C)NC(=O)[C@H](Cc1ccccc1)NC(=O)[C@H](Cc1c[nH]cn1)NC(=O)[C@H](C)NC(=O)[C@H](CC(C)C)NC(=O)[C@H](CCCNC(=N)N)NC(=O)[C@H](CCC(N)=O)NC(=O)[C@@H](NC(=O)[C@H](C)NC(=O)[C@@H]1CSSC[C@H](NC(=O)[C@@H](N)CCCCNC(=O)COCCOCCNC(=O)CCCCCCCCCCCCCCCCCCC(=O)O)C(=O)N[C@@H](CC(N)=O)C(=O)N[C@@H]([C@@H](C)O)C(=O)N[C@@H](C)C(=O)N[C@@H]([C@@H](C)O)C(=O)N1)[C@@H](C)O)C(=O)N1CCC[C@H]1C(=O)N[C@@H](CO)C(=O)N[C@@H](CO)C(=O)N[C@H](C(=O)N[C@@H](CC(N)=O)C(=O)N[C@H](C(=O)NCC(=O)N[C@@H](CO)C(=O)N[C@@H](CC(N)=O)C(=O)N[C@H](C(=O)N[C@@H](Cc1ccc(O)cc1)C(N)=O)[C@@H](C)O)C(C)C)[C@@H](C)O [Example 90] | 7.2 | – | 7.2 | ≥ 200 µM | ≥ 200 µM | ≥ 200 µM | ≥ 200 µM | ≥ 200 µM | ≥ 200 µM | ≥ 200 µM | ≥ 200 µM | – | – | 42.2 | 42.2 | 42.2 | 42.2 | 42.2 | 42.2 | 42.2
